Experimental data taken from US10039779B2, “Combination formulation of two antiviral compounds” (priority 2013, dated 2018).

Tests used:
[1] = Aqueous solubility with 0.1% w/w surfactants and polymers; dissolution behavior of forms; assay type: physicochemical; conditions: aqueous buffered solutions
Procedure: Excess solid was added to aqueous buffered solutions; samples were withdrawn at predetermined intervals (2, 5, 8, 10, 15, 20, 30, 45, 60 minutes, and 24 hours), filtered through regenerated cellulose filters, and diluted for concentration measurement by the HPLC-UV method.

[2] = pH-solubility profile and solubility in simulated intestinal media; assay type: physicochemical; conditions: aqueous, neutral form (pH>5), room temperature
Procedure: Excess solid ledipasvir was added to a range of pH-adjusted aqueous solutions (titrated with HCl or NaOH) and stirred for 48 hours at room temperature. The suspensions were then filtered through regenerated cellulose syringe filters. The pH value of the supernatant was measured, and the supernatant was diluted as appropriate with 50:50 H2O+0.1% TFA:ACN and assayed for ledipasvir content by the HPLC-UV method.
Solubility of ledipasvir amorphous free base was assessed in three types of simulated intestinal fluids at pH 6.5 or pH 5.0; and simulated intestinal bile salt and lecithin mixture (SIBLM), pH 6.4. Excess solid ledipasvir was added to the respective SIFs and stirred for 48 hours at room temperature. The resulting suspensions were then filtered through regenerated cellulose syringe filters. The supernatant was diluted as appropriate with 50:50 H2O+0.1% TFA:ACN and assayed for ledipasvir content by the HPLC-UV method.

[3] = Pharmacokinetics of sofosbuvir and ledipasvir alone or in combination; assay type: in vivo; conditions: for AUC(0-inf) / AUC(0-t) / Cmax: po, plasma analyte, n = 17, mean (% CV)
[4] = clinical; conditions: in vivo; for AUC(0-inf) / AUC(0-t) / Cmax: po, plasma analyte, Sofosbuvir/Ledipasvir Tablet, n = 29, mean (% CV); for AUC(0-inf): AUCinf; for AUC(0-t): AUClast
[5] = PK of sofosbuvir alone or with Compound E (and ledipasvir); assay type: in vivo; conditions: for AUC(0-inf) / AUC(0-t) / Cmax: human, in vivo, n = 18, mean (% CV)
Procedure: Subjects (n=18) received single doses of sofosbuvir (400 mg) alone or in combination with Compound E (500 mg QD) under fed conditions.

[6] = test system: HCV; experiment: Dose selection: antiviral response and Emax PK/PD modeling; assay type: in vivo, Hepatitis C virus
Procedure: The sofosbuvir dose selected for the tablet formulation is 400 mg once daily. Support for the 400 mg sofosbuvir dose can be derived from Emax PK/PD modeling with early virological and human exposure data which also supports the selection of a 400 mg sofosbuvir dose over others tested.
The mean sofosbuvir major metabolite AUCtau for the 400 mg sofosbuvir dose is associated with approximately 77% of the maximal HCV RNA change from baseline achievable as determined by this model, a value which is on the cusp of the plateau of the exposure-response sigmoidal curve. […] Therefore, given that sofosbuvir exposure with 200 mg tablets appears dose-proportional with single doses up to 1200 mg, doses below 400 mg are expected to yield considerable reductions in the magnitude of HCV RNA change from baseline.
The sofosbuvir dose of 400 mg once daily was associated with higher SVR rates in genotype 1 HCV infected patients as compared to the 200 mg once daily dose when given in conjunction with additional HCV therapeutics for 24 weeks. Safety and tolerability appeared similar across both dose levels. In addition, when sofosbuvir 400 mg once daily plus other HCV therapeutics were given to genotype 2 or 3 HCV infected patients, 100% SVR24 was observed.
The maximum median HCV RNA log 10 reduction was 3 or greater for all cohorts dosed with ≥3 mg of ledipasvir. […] Therefore, 30 mg and 90 mg of ledipasvir were selected as the dose for the formulations described herein.
Therefore, the 90 mg dose of ledipasvir may confer a greater antiviral coverage that prevents viral breakthrough.

[7] = PK of Sofosbuvir/Ledipasvir tablets fasted or with meals
[8] = Compatibility/stability of sofosbuvir and ledipasvir:copovidone solid dispersion blend; assay type: physicochemical; conditions: for Strength / Total Impurity Content: blend pellets, open glass vials
Procedure: The compatibility of sofosbuvir anhydrous crystalline drug substance was evaluated with the ledipasvir:copovidone solid dispersion. A blend of the sofosbuvir and ledipasvir:copovidone (1:1) solid dispersion was prepared at a ratio representative of the final 400 mg sofosbuvir/90 mg ledipasvir tablets. […]

[9] = listed as Ledipasvir crystalline free base Form III
[10] = Sofosbuvir + Ledipasvir vs single agent alone
[11] = in vivo, Sofosbuvir + Ledipasvir
[12] = SOF + Compound E + ledipasvir vs SOF alone
[13] = po, 400 mg, SOF + Compound E (500 mg QD), fed
[14] = po, 400 mg, SOF alone (400 mg single dose, fed)

In the case of `COC(=O)N[C@H](C(=O)N1CC2(CC2)C[C@H]1c1ncc(-c2ccc3c(c2)C(F)(F)c2cc(-c4ccc5nc([C@@H]6[C@H]7CC[C@H](C7)N6C(=O)[C@@H](NC(=O)OC)C(C)C)[nH]c5c4)ccc2-3)[nH]1)C(C)C` [Ledipasvir-02], the “dissolution behavior relative to other ledipasvir forms” value [1] is reported as “improved relative to all free base forms”.

In the case of `COC(=O)N[C@H](C(=O)N1CC2(CC2)C[C@H]1c1ncc(-c2ccc3c(c2)C(F)(F)c2cc(-c4ccc5nc([C@@H]6[C@H]7CC[C@H](C7)N6C(=O)[C@@H](NC(=O)OC)C(C)C)[nH]c5c4)ccc2-3)[nH]1)C(C)C` [Ledipasvir-03], the “intrinsic solubility (S0)” value [2] is reported as less than 0.1 µg/mL and the “dissolution behavior relative to other ledipasvir forms” value [1] is reported as “slowest dissolution of all forms tested”.

For `COC(=O)N[C@H](C(=O)N1CC2(CC2)C[C@H]1c1ncc(-c2ccc3c(c2)C(F)(F)c2cc(-c4ccc5nc([C@@H]6[C@H]7CC[C@H](C7)N6C(=O)[C@@H](NC(=O)OC)C(C)C)[nH]c5c4)ccc2-3)[nH]1)C(C)C` [Ledipasvir Form III], the “intrinsic solubility (S0)” value [2, 9] was less than 0.1 µg/mL and the “dissolution behavior relative to other ledipasvir forms” value [1, 9] was “dissolves more slowly than the amorphous free base, but faster than ledipasvir-03”.

For `CC(C)OC(=O)[C@H](C)N[P@](=O)(OC[C@H]1O[C@@H](n2ccc(=O)[nH]c2=O)[C@](C)(F)[C@@H]1O)Oc1ccccc1` [Sofosbuvir, (S)-isopropyl 2-(((S)-(((2R,3R,4R,5R)-5-(2,4-dioxo-3,4-dihydropyrimidin-1(2H)-yl)-4-fluoro-3-hydroxy-4-methyltetrahydrofuran-2-yl)methoxy)(phenoxy)phosphoryl)amino)propanoate], the “AUC with ledipasvir as share of total drug related material (DRM) AUC” value ([3]; DRM = sum of AUCs of analytes corrected for molecular weight) was roughly 5.7%, the “% GMR (90% CI) of AUCinf” value [3, 10] was 229 (191, 276) % and the “% GMR (90% CI) of AUClast” value [3, 10] was 230 (191, 277) %. The “% GMR (90% CI) of Cmax” value [3, 10] was 221 (176, 278) %, the “increase of plasma exposure by ledipasvir” value ([3]; in vivo) was roughly 2.3 fold and the AUC(0-inf) [3, 11] was 1750 ng·h/mL. It also gave an AUC(0-t) [3, 11] of 1740 ng·h/mL, a Cmax [3, 11] of 1870 ng/mL and an AUC(0-inf) ([3]; in vivo, Sofosbuvir alone) of 794 ng·h/mL. The AUC(0-t) ([3]; in vivo, Sofosbuvir alone) was 788 ng·h/mL, the Cmax ([3]; in vivo, Sofosbuvir alone) was 929 ng/mL and the Tmax [4] was 1 h. The AUC(0-inf) ([4]; Fasted) was 1520 ng·h/mL, the AUC(0-inf) ([4]; High-Calorie/High-Fat Meal) was 2570 ng·h/mL and the AUC(0-inf) ([4]; Moderate-Fat Meal) was 2860 ng·h/mL. The AUC(0-t) ([4]; Fasted) was 1520 ng·h/mL, the AUC(0-t) ([4]; High-Calorie/High-Fat Meal) was 2550 ng·h/mL and the AUC(0-t) ([4]; Moderate-Fat Meal) was 2850 ng·h/mL. It also gave a Cmax ([4]; Fasted) of 1240 ng/mL, a Cmax ([4]; High-Calorie/High-Fat Meal) of 1350 ng/mL and a Cmax ([4]; Moderate-Fat Meal) of 1520 ng/mL. For the same molecule, the “% GMR of AUCinf” value [5, 12] was 297%, the “% GMR of AUClast” value [5, 12] was 301% and the “% GMR of Cmax” value [5, 12] was 283%. The “% GMR of AUCinf” value ([5]; SOF + Compound E vs SOF alone) was 135%, the “% GMR of AUClast” value ([5]; SOF + Compound E vs SOF alone) was 135% and the “% GMR of Cmax” value ([5]; SOF + Compound E vs SOF alone) was 130%. The AUC(0-inf) ([5]; SOF + Compound E + ledipasvir) was 2560 ng·h/mL, the AUC(0-t) ([5]; SOF + Compound E + ledipasvir) was 2550 ng·h/mL and the Cmax ([5]; SOF + Compound E + ledipasvir) was 1260 ng/mL. It also gave an AUC(0-inf) [5, 13] of 1150 ng·h/mL, an AUC(0-t) [5, 13] of 1140 ng·h/mL and a Cmax [5, 13] of 587 ng/mL. The AUC(0-inf) [5, 14] was 921 ng·h/mL, the AUC(0-t) [5, 14] was 908 ng·h/mL and the Cmax [5, 14] was 515 ng/mL. The “share of the maximal HCV RNA change from baseline achievable (Emax PK/PD model)” value ([6]; 400 mg dose, mean major metabolite AUCtau) was “approximately 77%”, the SVR24 ([6]; 400 mg once daily plus other HCV therapeutics, genotype 2 or 3 HCV infected patients) was 100% and the “% GMR (90% CI) [Moderate-Fat/Fasted] of AUCinf” value ([7]; Sofosbuvir/Ledipasvir Tablet) was 195 (176, 216) %. For the same molecule, the “% GMR (90% CI) [Moderate-Fat/Fasted] of AUClast” value ([7]; Sofosbuvir/Ledipasvir Tablet) was 195 (176, 216) %, the “% GMR (90% CI) [Moderate-Fat/Fasted] of Cmax” value ([7]; Sofosbuvir/Ledipasvir Tablet) was 126 (109, 147) % and the “GMR (90% CI) [High-Fat/Fasted] of AUCinf” value ([7]; Sofosbuvir/Ledipasvir Tablet) was 179 (162, 198) %. The “GMR (90% CI) [High-Fat/Fasted] of AUClast” value ([7]; Sofosbuvir/Ledipasvir Tablet) was 178 (161, 198) %, the “GMR (90% CI) [High-Fat/Fasted] of Cmax” value ([7]; Sofosbuvir/Ledipasvir Tablet) was 115 (99.0, 134) % and the “median Tmax” value ([7]; sofosbuvir/ledipasvir composition, with food) was 2.00 h. For the same molecule, the “degradation in blend with the other active” value ([8]; 40° C./75% RH and 60° C./ambient humidity, two and four weeks) was “no degradation was observed”, the Strength ([8]; 45° C./75% RH, 0 weeks) was 102.9% and the “Total Impurity Content” value ([8]; 45° C./75% RH, 0 weeks) was 0.4%. For the same molecule, the Strength ([8]; 45° C./75% RH, 2 weeks) was 101.6%, the “Total Impurity Content” value ([8]; 45° C./75% RH, 2 weeks) was 0.3% and the Strength ([8]; 45° C./75% RH, 4 weeks) was 100.5%. For the same molecule, the “Total Impurity Content” value ([8]; 45° C./75% RH, 4 weeks) was 0.2%, the Strength ([8]; 60° C., 0 weeks) was 102.9% and the “Total Impurity Content” value ([8]; 60° C., 0 weeks) was 0.4%. For the same molecule, the Strength ([8]; 60° C., 1 week) was 102.4%, the “Total Impurity Content” value ([8]; 60° C., 1 week) was 0.3% and the Strength ([8]; 60° C., 2 weeks) was 103.2%. For the same molecule, the “Total Impurity Content” value ([8]; 60° C., 2 weeks) was 0.3%, the Strength ([8]; 60° C., 4 weeks) was 102.8% and the “Total Impurity Content” value ([8]; 60° C., 4 weeks) was 0.2%.
